Experimental data reported in US20060142271A1, “Novel lapacho compounds and methods of use thereof” (priority 2002, published 2006).
Read-outs that look alike come from different tables or passages of the source.

Columns and labels:
[1] = tested on: HaCaT cells; format: cell-based, human; conditions: for LDH (mU): human, 2 μM
Description: (§1) HaCaT keratinocyte proliferation assay and LDH release were described previously in full detail (Muller et al. J. Med. Chem. 39: 3132-3138, 1996; Müller et al. J. Med. Chem. 37: 1660-1669, 1994). For the cancer cell line studies, exponentially growing cells were seeded at 1,000 cells per well in six-well plates and allowed to attach for 24 h. Compounds of the invention or β-lapachone, solubflized in DMSO, were added to the wells in micromolar concentrations. Control wells were treated with equivalent volumes of DMSO. After 4 h the supernatant was removed and fresh medium was added. Cultures were observed daily for 10-15 days and then were fixed and stained. Colonies of greater than 30 cells were scored as survivors.
The cytotoxicity of naphthoquinones has been thought to result, at least in part, from reactive oxygen species, generated during redox cycling between the […] and reduction products (Munday, R., Free Radic. Biol. Med., 22, 689-695, 1997), which cause peroxidative damage to membrane lipids. To assess the correlation of keratinocyte growth inhibition with membrane damage, the release of lactate dehydrogenase from the treated cells was also quantitated.

[2] = tested on: HaCaT cells; assay: HaCaT keratinocyte proliferation assay (cell counting); format: cell-based, human; conditions: for inhibition of HaCaT cell proliferation (in words): HaCaT cells
Description: Anthralin, an antipsoriatic drug, was used as a positive control. Antiproliferative activity was measured directly by counting the dispersed cells under a phase-contrast microscope.
as §1, with “survivors. […]” for “survivors.”

[3] = tested on: colon cancer cell line SW480; assay: Cancer cell line colony survival assay, SW480; format: cell-based, human; conditions: colon cancer cell line SW480, 4 h exposure, colonies after 10-15 days, read-out: AA in Cancer Cell Lines IC50 (μM) SW480
Description: as §1

[4] = tested on: breast cancer cell line MCF7; assay: Cancer cell line colony survival assay, MCF7; format: cell-based, human; conditions: breast cancer cell line MCF7, 4 h exposure, colonies after 10-15 days, read-out: AA in Cancer Cell Lines IC50 (μM) MCF7
Description: as §1

[5] = tested on: colon cancer cell line DLD1; assay: Cancer cell line colony survival assay, DLD1; format: cell-based, human; conditions: colon cancer cell line DLD1, 4 h exposure, colonies after 10-15 days, read-out: AA in Cancer Cell Lines IC50 (μM) DLD1
Description: as §1

[6] = tested on: human keratinocyte cell line HaCaT; conditions: Müller et al., J. Nat. Prod. 62 (1999); cited from earlier work
[7] = Homo sapiens, antiproliferative activity against HaCaT cells, N = 3, read-out: AA in HaCaT Cells IC50
[8] = antiproliferative activity against HaCaT cells, N = 3, read-out: AA in HaCaT Cells IC50

| Structure (SMILES) | LDH release compared to vehicle control (in words) [1] | LDH (mU) [1] [mU] | inhibition of HaCaT cell proliferation (in words) [2] | IC50 [2, 7] [µM] | melting point | IC50 ([3]; Homo sapiens) [µM] | IC50 ([4]; Homo sapiens) [µM] | IC50 ([5]; Homo sapiens, DLD-1) [µM] | other results |
| --- | --- | --- | --- | --- | --- | --- | --- | --- | --- |
| O=C1c2cccc(O)c2C(=O)c2ccsc21 [Compound 82, 5-Hydroxy-naphtho[2,3-b]thiophene-4,9-dione] | without significant elevation of LDH release over the vehicle control | 117 | inhibited cell proliferation at concentrations comparable to β-lapachone and the furan analogs | 1 | – | – | – | – | – |
| O=C(c1ccccc1)c1cc2c(s1)C(=O)c1ccccc1C2=O [Compound 64b, 2-Benzoyl-naphtho[2,3-b]thiophene-4,9-dione] | without significant elevation of LDH release over the vehicle control | – | inhibited cell proliferation at concentrations comparable to β-lapachone and the furan analogs | 1.7 | 158 to 159 °C | 4 | ≤ 1 | 1.3 | – |
| COc1ccc(C(=O)c2cc3cc4ccccc4cc3s2)cc1OC [Compound 65a, (3,4-Dimethoxyphenyl)-naphtho[2,3-b]thiophen-2-yl-methanone] | – | – | – | > 5 | 175 to 176 °C | > 32 | > 32 | > 32 | – |
| CC(=O)c1cc2cc3ccccc3cc2o1 [Compound 73a, Naphtho[2,3-b]furan-2-yl-ethanone] | – | – | – | – | – | – | – | – | IC50 [3]: > 32 µM; IC50 [2, 8]: > 5 µM; IC50 [4]: > 32 µM; IC50 [5]: > 32 µM |
| O=C(c1ccc(O)cc1)c1cc2c(s1)C(=O)c1ccccc1C2=O [Compound 62c, 2-(4-Hydroxybenzoyl)-naphtho[2,3-b]thiophene-4,9-dione] | – | 123 | – | 2.7 | – | 12 | 2 | 5.3 | – |
| O=C(c1ccc([N+](=O)[O-])cc1)c1cc2cc3ccccc3cc2s1 [Compound 66a, Naphtho[2,3-b]thiophen-2-yl-(4-nitrophenyl)methanone] | – | – | – | > 5 | 251 to 252 °C | > 32 | > 32 | > 32 | – |
| O=C1c2c(O)cccc2Cc2cccc(O)c21 [anthralin, reference compound] | LDH release significantly higher than vehicle controls | 294 | – | 0.7 | – | – | – | – | – |
| O=C(c1ccccc1)c1cc2cc3ccccc3cc2s1 [Compound 64a, Naphtho[2,3-b]thiophen-2-yl-phenylmethanone] | – | 122 | – | 0.3 | 164 to 165 °C | ≤ 1 | ≤ 1 | 1.5 | – |
| O=C(c1ccc(O)c(O)c1)c1cc2c(s1)C(=O)c1ccccc1C2=O [Compound 65c, 2-(3,4-Dihydroxybenzoyl)-naphtho[2,3-b]thiophene-4,9-dione] | without significant elevation of LDH release over the vehicle control | 118 | inhibited cell proliferation at concentrations comparable to β-lapachone and the furan analogs | 1.5 | 272 to 274 °C (dec.) | 20 | 8 | 11 | – |
| CC(=O)Oc1cccc2c1C(=O)c1ccsc1C2=O [Compound 81, 5-Acetoxy-naphtho[2,3-b]thiophene-4,9-dione] | without significant elevation of LDH release over the vehicle control | 160 | inhibited cell proliferation at concentrations comparable to β-lapachone and the furan analogs | 1.4 | – | – | – | – | – |
| CC(=O)c1cc2cc3ccccc3cc2s1 [Compound 63a, Naphtho[2,3-b]thiophen-2-yl-ethanone] | without significant elevation of LDH release over the vehicle control | – | inhibited cell proliferation at concentrations comparable to β-lapachone and the furan analogs | – | – | – | – | – | IC50 [3]: > 32 µM; IC50 [2, 8]: 5 µM; IC50 [4]: > 32 µM; IC50 [5]: > 32 µM |
| CC1(C)CCC2=C(O1)C(=O)c1ccccc1C2=O [α-lapachone, reference compound] | – | – | – | – | – | – | – | – | inhibition of keratinocyte growth in HaCaT model (in words) [6]: relatively inactive; IC50 ([2]; Homo sapiens, HaCaT, read-out: AA in HaCaT Cells IC50 (μM)): 10 µM |
| COc1ccc(C(=O)c2cc3c(s2)C(=O)c2ccccc2C3=O)cc1 [Compound 62b, 2-(4-Methoxybenzoyl)-naphtho[2,3-b]thiophene-4,9-dione] | – | – | – | > 5 | – | 16 | 3 | 5.5 | – |
| CC(C)=CCC1=C(O)C(=O)c2ccccc2C1=O [lapachol] | – | – | – | – | – | – | – | – | inhibition of keratinocyte growth in HaCaT model (in words) [6]: relatively inactive |
| COc1ccc(C(=O)c2cc3c(o2)C(=O)c2ccccc2C3=O)cc1OC [Compound 75b, 2-(3,4-Dimethoxybenzoyl)-naphtho[2,3-b]furan:4,9-dione] | – | – | – | – | – | – | – | – | IC50 [2, 8]: 2.5 µM; IC50 [5]: 1.4 µM |
| COc1ccc(C(=O)c2cc3c(s2)C(=O)c2ccccc2C3=O)cc1OC [Compound 65b, 2-(3,4-Dimethoxybenzoyl)-naphtho[2,3-b]thiophene-4,9-dione] | without significant elevation of LDH release over the vehicle control | 137 | inhibited cell proliferation at concentrations comparable to β-lapachone and the furan analogs | 0.8 | 212 to 218 °C | 10 | ≤ 1 | 2.6 | – |
| O=C(c1ccc([N+](=O)[O-])cc1)c1cc2c(s1)C(=O)c1ccccc1C2=O [Compound 66b, 2-(4-Nitrobenzoyl)-naphtho[2,3-b]thiophene-4,9-dione] | – | – | – | 4 | 270 °C | – | – | 25 | – |
| CC(=O)c1cc2c(s1)C(=O)c1ccccc1C2=O [Compound 63b, 2-Acetyl-naphtho[2,3-b]thiophene-4,9-dione] | – | 134 | – | 0.3 | 261 to 262 °C | 4 | ≤ 1 | 1 | – |
| O=C(c1ccccc1)c1cc2c(o1)C(=O)c1ccccc1C2=O [Compound 74b, 2-Benzoyl-naphtho[2,3-b]furan-4,9-dione] | – | 222 | – | 0.7 | 198 to 200 °C | – | – | – | – |
| CC(=O)c1cc2c(o1)C(=O)c1ccccc1C2=O [Compound 6, 2-Acetyl-naphtho[2,3-b]furan4,9-dione] | significant LDH release as compared to vehicle | 331 | inhibited cell proliferation | 0.5 | – | ≤ 1 | ≤ 1 | 0.8 | – |
| COc1ccc(C(=O)c2cc3cc4ccccc4cc3s2)cc1 [Compound 62a, (4-Methoxyphenyl)-naphtho[2,3-b]thiophen-2-yl-methanone] | – | – | – | > 5 | – | > 32 | > 32 | > 32 | – |
| COc1ccc(C(=O)c2cc3cc4ccccc4cc3o2)cc1OC [Compound 75a, (3,4-Dimethoxyphenyl)-naphtho[2,3-b]furan-2-yl-methanone] | – | – | – | > 5 | – | 30 | 12 | 14 | – |
| O=C(c1ccccc1)c1cc2cc3ccccc3cc2o1 [Compound 74a, Naphtho[2,3-b]furan-2-yl-phenylmethanone] | – | 142 | – | 1.9 | 140 to 142 °C | 12 | ≤ 1 | 7.6 | – |
